From patent US12084698B2, “Virus-like particles and use thereof” (priority 2018, dated 2024)

Experiments:
DMD gene = experiment: T7EI assay in HEK293T EGxxFP cells expressing sgRNA DMD #1; format: cell-based, human; details: VLPs prepared in presence or absence of AP21967
Experimental: By using MonoFas Genomic DNA Extraction kit (GL Sciences Inc.), genomic DNA was recovered from the cultured cells according to the protocol. Then, PCR was performed using 100 ng of the genomic DNA, primers for the regions to be amplified, and PrimeSTAR GXL DNA Polymerase (Takara Bio Inc.), and the PCR product was purified using Wizard SV Gel and PCR Clean-up System (Promega Corporation).
Subsequently, 400 ng of the PCR product was thermally denatured in NEBuffer 2.1 (New England Biolabs) at 95° C. for 5 minutes and then reannealed by slow cooling. The PCR product was cooled to 85° C. from 95° C. at −2° C./sec and then to 25° C. from 85° C. at −0.1° C./sec. Subsequently, 10 units of T7 endonuclease I (T7EI) enzyme was added thereto and reacted at 37° C. for 15 minutes. Thereafter, 6 mM of EDTA was added thereto so that the reaction stopped. Then, the cleavage products were analyzed using DS1000 High Sensitivity Screen Tape and Tape Station 2200 (Agilent Technologies, Inc.).
Then, the cleavage activity for the target DMD gene on the genome was measured by T7EI assay.
After 3 days, genomic DNA was extracted from each of the cells. Subsequently, the target region of the DMD gene on the genome was amplified by PCR. Thereafter, the PCR product was purified using columns, and by using 400 ng of the obtained DNA, mutation introduction efficiency was measured by T7EI assay.

[1] = system: DNA (700 bp) including a dystrophin target sequence; experiment: In vitro DNA cleavage activity of VLP lysate; format: biochemical, human; details: VLPs prepared in presence or absence of AP21967
Experimental: Thereafter, in order to test the amount of the Cas9 protein contained in VLPs, in vitro DNA cleavage activity was measured. Specifically, Lysis buffer was added to each of the concentrated VLPs, and the mixture was left to stand on ice for 10 minutes so that the VLPs were lysed.
After the reaction, in order to remove sgRNA, RNase A was added thereto and reacted at 37° C. for 30 minutes. Furthermore, in order to remove proteins, proteinase K was added thereto and reacted at 50° C. for 20 minutes.
Then, these samples were subjected to electrophoresis using 2200 TapeStation (high sensitivity D1000 TapeScreen, Agilent Technologies, Inc.), and the proportion of cleaved DNA including the dystrophin target sequence was measured.

[2] = system: EGxxFP reporter construct in HEK293T EGxxFP cells; experiment: SSA-EGFP (EGxxFP) reporter experiment, flow cytometry of GFP-positive cells; format: cell-based, human; details: VLPs prepared at 0, 3, 30, 300 nM AP21967; 5×10^4 cells; 3 days
Experimental: The HEK293T EGxxFP cells were seeded on a 48-well plate at 2.5×10^4 to 5.0×10^4 cells/well. On the next day, the VLP solution was added thereto, and then after 3 days, the fluorescence of EGFP was analyzed using an LSR3 flow cytometer.
FIG. 2 is a schematic view illustrating an SSA-EGFP (hereinafter, called “EGxxFP” in some cases) reporter experiment. As cells, HEK293T cells were used which constantly express sgRNA targeting the human Dystrophin (DMD) gene and have genome into which the EGxxFP reporter construct (SEQ ID NO: 21) was inserted. The EGxxFP reporter construct is a construct designed by inserting a sequence including the target sequence of the sgRNA into the EGFP cDNA sequence, so that a functional EGFP protein is not expressed.
Then, the cleaved EGFP cDNA is repaired by single-strand annealing (SSA). As a result, functional EGFP is expressed, and the fluorescence of EGFP can be observed. In this experimental system, by quantifying the fluorescence of EGFP in the cells by using a flow cytometer, it is possible to evaluate the target gene cleavage efficiency (genome editing efficiency) of the Cas9 protein in cell populations.
Then, the prepared VLPs (15 μL) were introduced into the HEK293T EGxxFP reporter cells (5×10^4 cells expressing sgRNA). Subsequently, after 3 days, the proportion of GFP-positive cells was analyzed with a flow cytometer.

HIV protease = HIV protease (Human immunodeficiency virus type 1 group M subtype B, UniProt P04585); details: Darunavir added to cells in preparing VLPs
Experimental: First, in the presence or absence of Darunavir (HIV protease inhibitor), VLPs (FIGS. 1(a) and 1(b)) were prepared which were constituted with wild-type Gag-Pol^HIV or FKBP12-Gag-Pol^HIV derived from HIV and encapsulated a Cas9 protein fused with an FRB domain (hereinafter, called “FRB-Cas9 protein” in some cases).
Subsequently, FKBP12-Gag-Pol^HIV and the HA-tagged FRB-Cas9 protein in each of the above VLPs were quantified by Western blotting.

Compound	encapsulation of Cas9 in VLPs on addition of AP21967 (DMD gene)	encapsulation of Cas9 in VLPs on addition of AP21967 [1]	genome editing efficiency (proportion of GFP-positive cells) [2]	cleavage of Gag protein and degradation of Cas9 protein in VLPs (HIV protease)
CO[C@H]1[C@@H](O)[C@H](C)C[C@H](C)/C=C/C=C/C=C(\C)[C@@H](c2c[nH]c3c(C)cccc23)C[C@@H]2CC[C@@H](C)[C@@](O)(O2)C(=O)C(=O)N2CCCC[C@H]2C(=O)O[C@H]([C@H](C)C[C@@H]2CC[C@@H](O)[C@H](OC)C2)C[C@H](O)[C@H](C)/C=C(\C)[C@H]1O [AP21967, C-16-(S)-7-methylindole rapamycin]	more efficiently encapsulated	more efficiently encapsulated	increases depending on the AP21967 concentration	
CC(C)CN(C[C@@H](O)[C@H](Cc1ccccc1)NC(=O)O[C@H]1CO[C@H]2OCC[C@H]21)S(=O)(=O)c1ccc(N)cc1 [Darunavir]				inhibited
